According to US20160170302A1, “NOVEL COMPOUND” (TOKYO OHKA KOGYO CO., LTD., priority 2011, published 2016):

Test: Solubility to organic solvents PM and AN
Settings: for Solubility to Solvent AN: solvent: cyclohexanone (AN); for Solubility to Solvent PM: solvent: propylene glycol monomethyl ether acetate (PM)

Row | SMILES | Solubility to Solvent AN [mass %] | Solubility to Solvent PM [mass %]
1 | CCN(CC)C(=O)/C(C)=C/c1ccc(OC)cc1 [Compound 19] | >50 | >50
2 | COc1ccc(/C=C/C(=O)n2ccnc2)cc1[N+](=O)[O-] [Compound 6] | >50 | >50
3 | COc1ccc(/C=C/C(=O)n2ccnc2)cc1 [Compound 3] | >50 | >50
4 | CCN(CC)C(=O)/C(C)=C/c1ccc(OC)c([N+](=O)[O-])c1 [Compound 12] | >50 | >50
5 | COc1ccc(/C=C(\C)C(=O)n2ccnc2)cc1 [Compound 18] | >50 | >50
6 | CCN(CC)C(=O)/C=C/c1ccc(OC)cc1[N+](=O)[O-] [Compound 9] | >50 | >50
7 | COc1ccc(/C=C/C(=O)N2CCCCC2)cc1 [Compound 17] | >50 | >50
8 | COc1ccc(/C=C(\C)C(=O)N2CCCCC2)c([N+](=O)[O-])c1 [Compound 15] | >50 | >50
9 | COc1ccc(/C=C/C(=O)N2CCCCC2)c([N+](=O)[O-])c1 [Compound 13] | >50 | >50
10 | COc1ccc(/C=C(\C)C(=O)N2CCCCC2)cc1[N+](=O)[O-] [Compound 16] | >50 | >50
11 | CCN(CC)C(=O)/C=C/c1ccc(OC)c([N+](=O)[O-])c1 [Compound 10] | >50 | >50
12 | CCO[Si](C)(CCCN)OCC [Comparative Compound 6, reference compound] | >50 | >50
13 | COc1ccc(/C=C/C(=O)N2CCCCC2)cc1[N+](=O)[O-] [Compound 14] | >50 | >50
14 | CCN(CC)C(=O)/C=C/c1ccc(OC)cc1 [Compound 1] | >50 | >50
15 | COc1ccc(/C=C(\C)C(=O)Nc2ccccc2)cc1 [Compound 20] | >50 | >50
16 | CCN(CC)C(=O)/C(C)=C/c1ccc(OC)cc1[N+](=O)[O-] [Compound 11] | >50 | >50
17 | COc1ccc(/C=C/C(=O)Nc2ccccc2)cc1 [Compound 2] | >50 | >50
